US11795481B2, “Processes for producing a fermentation product” (Novozymes A/S, priority 2017, dated 2023)

B1: Pfu S: commercial product Pyrococcus furiosus protease (Pfu S), SEQ ID NO: 111 (protein, listed as Pyrococcus furiosus)
chain: AELEGLDESAAQVMATYVWNLGYDGSGITIGIIDTGIDASHPDLQGKVIGWVDFVNGRSYPYDDHGHGTHVASIAAGTGAASNGKYKGMAPGAKLAGIKVLGADGSGSISTIIKGVEWAVDNKDKYGIKVINLSLGSSQSSDGTDALSQAVNAAWDAGLVVVVAAGNSGPNKYTIGSPAAASKVITVGAVDKYDVITSFSSRGPTADGRLKPEVVAPGNWIIAARASGTSMGQPINDYYTAAPGTSMATPHVAGIAALLLQAHPSWTPDKVKTALIETADIVKPDEIADIAYGAGRVNAYKAINYDNYAKLVFTGYVANKGSQTHQFVISGASFVTATLYWDNANSDLDLYLYDPNGNQVDYSYTAYYGFEKVGYYNPTDGTWTIKVVSYSGSANYQVDVVSDGSLSQPGSS

Experiments:
multi-strain LAB culture = test: SSF of control mash with 1% w/w infected mash, AA13 candidates, HPLC of organic acids and ethanol (Example 3); type: cell-based; conditions: SSF 32° C. up to 24 hours, 20% DS; for % delta Ethanol / % delta Lactic Acid: vs No Treatment
Procedure: A control mash was prepared in-house with an industry relevant blend of AA369 and Protease Pfu using a Lab-O-Mat incubator for 2 hours at 85° C. and 36% DS to simulate typical industry conditions. The mash was then frozen prior to use in SSF. An infected mash was prepared by infecting the control mash with a multi-strain LAB culture grown in MRS. The bacteria in control mash was incubated overnight, and then frozen with 20% glycerol. For this experiment, 1% weight/weight of the infected mash was mixed into the control mash. This mimics an infection event at a large-scale ethanol facility. For SSF, all mash was prepared with 1000 ppm of urea to aid with yeast fermentation. All treatments were dosed with a baseline commercial glucoamylase GSA, while AA13 candidates were dosed at either 10 ug/g-DS or 50 ug/g-DS. SSF was performed at 5 g scale with 10 uL/g rehydrated Ethanol Red yeast at 32° C. for up to 24 hours at 20% DS. At the end of fermentation, samples were deactivated with 50 uL of 40% sulfuric acid and then centrifuged. The supernatant was filtered through a 0.2 μm filter and then measured for soluble carbohydrates and organic acids using an ion-exchange H-column on HPLC.

[1] = pH 4.5; cited from earlier work

Molecule	average Ethanol (multi-strain LAB culture; AA13 dose 10 ug/g-DS) [g/L]	average Lactic Acid (multi-strain LAB culture; AA13 dose 10 ug/g-DS) [g/L]	% delta Ethanol (multi-strain LAB culture; AA13 dose 10 ug/g-DS) [%]	% delta Lactic Acid (multi-strain LAB culture; AA13 dose 10 ug/g-DS) [%]	average Ethanol (multi-strain LAB culture; AA13 dose 50 ug/g-DS) [g/L]	average Lactic Acid (multi-strain LAB culture; AA13 dose 50 ug/g-DS) [g/L]	% delta Ethanol (multi-strain LAB culture; AA13 dose 50 ug/g-DS) [%]	% delta Lactic Acid (multi-strain LAB culture; AA13 dose 50 ug/g-DS) [%]	average Ethanol (multi-strain LAB culture; Penicillin dose 25 ppm) [g/L]	average Lactic Acid (multi-strain LAB culture; Penicillin dose 25 ppm) [g/L]	% delta Ethanol (multi-strain LAB culture; Penicillin dose 25 ppm) [%]	% delta Lactic Acid (multi-strain LAB culture; Penicillin dose 25 ppm) [%]	thermostability (Relative Activity 80° C./70° C.) [1] [%]	thermostability (Relative Activity 90° C./70° C.) [1] [%]
Acrostalagmus luteoalbus: Acrostalagmus luteoalbus AA13 polypeptide of SEQ ID NO: 129	78.9	3.0	1.7	−10.9	80.0	2.9	3.0	−13.2	–	–	–	–	–	–
Aspergillus insuetus: Aspergillus insuetus AA13 polypeptide of SEQ ID NO: 130	76.7	3.4	−1.2	1.7	77.2	3.4	−0.6	2.1	–	–	–	–	–	–
Penicillium antarcticum: Penicillium antarcticum AA13 polypeptide of SEQ ID NO: 135	76.4	3.4	−1.6	2.2	76.2	3.4	−1.8	3.0	–	–	–	–	–	–
Penicillium hoeksii: Penicillium hoeksii AA13 polypeptide of SEQ ID NO: 137	78.1	3.2	0.6	−2.8	79.1	3.2	1.9	−4.8	–	–	–	–	–	–
Penicillium roseopurpureum: Penicillium roseopurpureum AA13 polypeptide of SEQ ID NO: 139	78.0	3.3	0.5	−1.3	78.1	3.3	0.6	−1.8	–	–	–	–	–	–
Cladosporium gossypiicola: Cladosporium gossypiicola AA13 polypeptide of SEQ ID NO: 131	77.5	3.3	−0.2	−1.8	78.5	3.2	1.1	−4.6	–	–	–	–	–	–
Penicillium viticola: Penicillium viticola AA13 polypeptide of SEQ ID NO: 146	76.6	3.4	−1.3	2.2	77.8	3.4	0.2	2.8	–	–	–	–	–	–
Penicillin [reference compound]	–	–	–	–	–	–	–	–	80.1	1.2	3.1	−62.4	–	–
Penicillium concentricum: Penicillium concentricum AA13 polypeptide of SEQ ID NO: 136	78.1	3.3	0.6	−0.6	78.2	3.2	0.7	−3.2	–	–	–	–	–	–
Penicillium samsonianum: Penicillium samsonianum AA13 polypeptide of SEQ ID NO: 140	77.1	3.4	−0.6	2.2	77.4	3.4	−0.4	2.0	–	–	–	–	–	–
Penicillium sclerotiorum: Penicillium sclerotiorum AA13 polypeptide of SEQ ID NO: 141	76.4	3.5	−1.6	6.9	78.1	3.3	0.6	−0.9	–	–	–	–	–	–
Penicillium paxilli: Penicillium paxiffi AA13 polypeptide of SEQ ID NO: 138	77.8	3.2	0.2	−4.9	78.1	3.1	0.5	−5.7	–	–	–	–	–	–
Penicillium vulpinum: Penicillium vulpinum AA13 polypeptide of SEQ ID NO: 147	79.0	3.2	1.7	−2.9	78.3	3.5	0.9	4.6	–	–	–	–	–	–
Penicillium steckii: Penicillium steckii AA13 polypeptide of SEQ ID NO: 145	76.6	3.5	−1.4	4.5	77.3	3.3	−0.4	−1.0	–	–	–	–	–	–
B1	–	–	–	–	–	–	–	–	–	–	–	–	110	103
